This assay concerns antibodies in sera of individuals which have been and/or are infected by SARS-CoV (SARS-green, SARS-yellow, 1a, 1b, 2, 6, 37, 62, London). It is filed as binding, human.

GVYYPDEIFRSDTLY [SEQ ID NO:78]: the “recognition by sera of SARS-CoV infected individuals, looped/cyclic form” value (“recognition by sera … looped/cyclic form” below) was “recognized in looped/cyclic form”. Turning to HTSPDVDLGDISGIN [SEQ ID NO:1155], the “recognition by sera … looped/cyclic form” value is reported as “recognized in looped/cyclic form”. Regarding HTSSMRGVYYPDEIF [SEQ ID NO:72], the “recognition by sera … looped/cyclic form” value was “recognized in looped/cyclic form”. On to ICGDSTECANLLLQY [SEQ ID NO:752], for which the “recognition by sera of SARS-CoV infected individuals, linear form” value (from here on “recognition by sera … linear form”) is on record as “recognized in linear form”. Take IFLLFLTLTSGSDLD [SEQ ID NO:42]: the “recognition by sera … looped/cyclic form” value is “recognized in looped/cyclic form”. For the sequence IINNTVYDPLQPELD [SEQ ID NO:1130], the “recognition by sera … looped/cyclic form” value is “recognized in looped/cyclic form”. As to INNTVYDPLQPELDS [SEQ ID NO:1131], the “recognition by sera … looped/cyclic form” value is on record as “recognized in looped/cyclic form”. Take IQESLTTTSTALGKL [SEQ ID NO:944]: the “recognition by sera … looped/cyclic form” value is “recognized in looped/cyclic form”.

Consider ITTEVMPVSMAKTSV [SEQ ID NO:732], for which the “recognition by sera … looped/cyclic form” value is “recognized in looped/cyclic form”. For the sequence KFNGLTVLPPLLTDD [SEQ ID NO:864], the “recognition by sera … looped/cyclic form” value was “recognized in looped/cyclic form”.

As to KNHTSPDVDLGDISG [SEQ ID NO:1153], the “recognition by sera … looped/cyclic form” value is reported as “recognized in looped/cyclic form”. KNLNESLIDLQELGK [SEQ ID NO:1187]: the “recognition by sera … looped/cyclic form” value is “recognized in looped/cyclic form”. On to KTSVDCNMYICGDST [SEQ ID NO:743], for which the “recognition by sera … linear form” value was “recognized in linear form”. As to KYFKNHTSPDVDLGD [SEQ ID NO:1150], the “recognition by sera … looped/cyclic form” value is recorded as “recognized in looped/cyclic form”. Regarding LDKVEAEVQIDRLIT [SEQ ID NO:994], the “recognition by sera … looped/cyclic form” value is listed as “recognized in looped/cyclic form”. With LDKYFKNHTSPDVDL [SEQ ID NO:1148], the “recognition by sera … looped/cyclic form” value is on record as “recognized in looped/cyclic form”. With LDSFKEELDKYFKNH [SEQ ID NO:1143], the “recognition by sera … looped/cyclic form” value is “recognized in looped/cyclic form”. Same read-out and setting: the entry for LFLTLTSGSDLDRCT [SEQ ID NO:45] is “recognized in looped/cyclic form”; for LGFIAGLIAIVMVTI [SEQ ID NO:1214] it is “recognized in looped/cyclic form”. Take LLFLTLTSGSDLDRC [SEQ ID NO:44]: the “recognition by sera … looped/cyclic form” value is “recognized in looped/cyclic form”. Regarding LNEVAKNLNESLIDL [SEQ ID NO:1182], the “recognition by sera … looped/cyclic form” value is recorded as “recognized in looped/cyclic form”. Same read-out and setting: the entry for LQDVVNQNAQALNTL [SEQ ID NO:958] is “recognized in looped/cyclic form”; for LQPELDSFKEELDKY [SEQ ID NO:1139] it is “recognized in looped/cyclic form”. In the case of LTLTSGSDLDRCTTF [SEQ ID NO:47], the “recognition by sera … looped/cyclic form” value is listed as “recognized in looped/cyclic form”.

As to LTSGSDLDRCTTFDD [SEQ ID NO:49], the “recognition by sera … looped/cyclic form” value was “recognized in looped/cyclic form”. LTTTSTALGKLQDVV [SEQ ID NO:948]: the “recognition by sera … looped/cyclic form” value is reported as “recognized in looped/cyclic form”. For LVSGTATAGWTFGAG [SEQ ID NO:887], the “recognition by sera … linear form” value was “recognized in linear form”. As for MFIFLLFLTLTSGSD [SEQ ID NO:40], the “recognition by sera … looped/cyclic form” value is on record as “recognized in looped/cyclic form”. As to MRGVYYPDEIFRSDT [SEQ ID NO:76], the “recognition by sera … looped/cyclic form” value is listed as “recognized in looped/cyclic form”.

Consider MYICGDSTECANLLL [SEQ ID NO:750], for which the “recognition by sera … linear form” value is recorded as “recognized in linear form”. NAQALNTLVKQLSSN [SEQ ID NO:965]: the “recognition by sera … looped/cyclic form” value is “recognized in looped/cyclic form”. As for NEVAKNLNESLIDLQ [SEQ ID NO:1183], the “recognition by sera … looped/cyclic form” value was “recognized in looped/cyclic form”. For NGLTVLPPLLTDDMI [SEQ ID NO:866], the “recognition by sera … looped/cyclic form” value is given as “recognized in looped/cyclic form”. With NHTSPDVDLGDISGI [SEQ ID NO:1154], the “recognition by sera … looped/cyclic form” value is reported as “recognized in looped/cyclic form”. Take NLNESLIDLQELGKY [SEQ ID NO:1188]: the “recognition by sera … looped/cyclic form” value is listed as “recognized in looped/cyclic form”. Regarding NMYICGDSTECANLL [SEQ ID NO:749], the “recognition by sera … linear form” value is “recognized in linear form”. As for NNTVYDPLQPELDSF [SEQ ID NO:1132], the “recognition by sera … looped/cyclic form” value was “recognized in looped/cyclic form”. With NQNAQALNTLVKQLS [SEQ ID NO:963], the “recognition by sera … looped/cyclic form” value is “recognized in looped/cyclic form”. In the case of NTVYDPLQPELDSFK [SEQ ID NO:1133], the “recognition by sera … looped/cyclic form” value was “recognized in looped/cyclic form”. NVPFSPDGKPCTPPA [SEQ ID NO:485]: the “recognition by sera … linear form” value was “recognized in linear form”.

For the sequence PCTPPALNCYWPLND [SEQ ID NO:494], the “recognition by sera … looped/cyclic form” value is given as “recognized in looped/cyclic form”. Same read-out and setting: as for PELDSFKEELDKYFK [SEQ ID NO:1141], the entry is “recognized in looped/cyclic form”.

As for PFSPDGKPCTPPALN [SEQ ID NO:487], the “recognition by sera … linear form” value is on record as “recognized in linear form”. PLQPELDSFKEELDK [SEQ ID NO:1138]: the “recognition by sera … looped/cyclic form” value was “recognized in looped/cyclic form”.

Take PPALNCYWPLNDYGF [SEQ ID NO:497]: the “recognition by sera … looped/cyclic form” value is given as “recognized in looped/cyclic form”.

On to QALNTLVKQLSSNFG [SEQ ID NO:967], for which the “recognition by sera … looped/cyclic form” value is “recognized in looped/cyclic form”. In the case of QDVVNQNAQALNTLV [SEQ ID NO:959], the “recognition by sera … looped/cyclic form” value is “recognized in looped/cyclic form”. In the case of QESLTTTSTALGKLQ [SEQ ID NO:945], the “recognition by sera … looped/cyclic form” value was “recognized in looped/cyclic form”. For QHTSSMRGVYYPDEI [SEQ ID NO:71], the “recognition by sera … looped/cyclic form” value was “recognized in looped/cyclic form”. The same measure, in the same setting: as for QIQESLTTTSTALGK [SEQ ID NO:943], the entry is “recognized in looped/cyclic form”. Regarding QKFNGLTVLPPLLTD [SEQ ID NO:863], the “recognition by sera … looped/cyclic form” value is recorded as “recognized in looped/cyclic form”.

For the sequence QNAQALNTLVKQLSS [SEQ ID NO:964], the “recognition by sera … looped/cyclic form” value is on record as “recognized in looped/cyclic form”. On to QPELDSFKEELDKYF [SEQ ID NO:1140], for which the “recognition by sera … looped/cyclic form” value is reported as “recognized in looped/cyclic form”.

For RGVYYPDEIFRSDTL [SEQ ID NO:77], the “recognition by sera … looped/cyclic form” value is listed as “recognized in looped/cyclic form”. As for RLDKVEAEVQIDRLI [SEQ ID NO:993], the “recognition by sera … looped/cyclic form” value is “recognized in looped/cyclic form”. As for RLNEVAKNLNESLID [SEQ ID NO:1181], the “recognition by sera … looped/cyclic form” value was “recognized in looped/cyclic form”. With SGSDLDRCTTFDDVQ [SEQ ID NO:51], the “recognition by sera … looped/cyclic form” value was “recognized in looped/cyclic form”.

On to SGTATAGWTFGAGAA [SEQ ID NO:889], for which the “recognition by sera … linear form” value is on record as “recognized in linear form”.

For SLTTTSTALGKLQDV [SEQ ID NO:947], the “recognition by sera … looped/cyclic form” value is recorded as “recognized in looped/cyclic form”. In the case of SMRGVYYPDEIFRSD [SEQ ID NO:75], the “recognition by sera … looped/cyclic form” value was “recognized in looped/cyclic form”. In the case of SNVPFSPDGKPCTPP [SEQ ID NO:484], the “recognition by sera … linear form” value is “recognized in linear form”. Consider SPDGKPCTPPALNCY [SEQ ID NO:489], for which the “recognition by sera … linear form” value is reported as “recognized in linear form”.

As to SPDVDLGDISGINAS [SEQ ID NO:1157], the “recognition by sera … looped/cyclic form” value is on record as “recognized in looped/cyclic form”. In the case of SRLDKVEAEVQIDRL [SEQ ID NO:992], the “recognition by sera … looped/cyclic form” value is reported as “recognized in looped/cyclic form”. Regarding SSMRGVYYPDEIFRS [SEQ ID NO:74], the “recognition by sera … looped/cyclic form” value was “recognized in looped/cyclic form”.

As to SVDCNMYICGDSTEC [SEQ ID NO:745], the “recognition by sera … linear form” value is recorded as “recognized in linear form”. For the sequence TAGWTFGAGAALQIP [SEQ ID NO:893], the “recognition by sera … linear form” value is “recognized in linear form”. As to TATAGWTFGAGAALQ [SEQ ID NO:891], the “recognition by sera … linear form” value is reported as “recognized in linear form”. In the case of TEVMPVSMAKTSVDC [SEQ ID NO:734], the “recognition by sera … looped/cyclic form” value is on record as “recognized in looped/cyclic form”. Same read-out and setting: as for TLTSGSDLDRCTTFD [SEQ ID NO:48], the entry is “recognized in looped/cyclic form”; as for TPPALNCYWPLNDYG [SEQ ID NO:496], “recognized in looped/cyclic form”.

As for TQHTSSMRGVYYPDE [SEQ ID NO:70], the “recognition by sera … looped/cyclic form” value is given as “recognized in looped/cyclic form”. TSGSDLDRCTTFDDV [SEQ ID NO:50]: the “recognition by sera … looped/cyclic form” value is “recognized in looped/cyclic form”. As for TSPDVDLGDISGINA [SEQ ID NO:1156], the “recognition by sera … looped/cyclic form” value is “recognized in looped/cyclic form”.

The values above are taken from US20060110803A1 (Crucell Holland B.V., priority 2003, published 2006).
